{
  "source": "patent US20060040951A1",
  "about": "“Use of 5-ht2 receptor antagonists for the treatment of sleep disorders” (Merck Patent GmbH, priority 2002, published 2006)",
  "key": {"[1]": {"details": "cited from earlier work"}, "rats [2]": {"test_system": "rats", "assay": "Brain-wave (EEG) recording of rats over 6 hours during the dark phase", "format": "in vivo, rat"}, "rats [3]": {"test_system": "rats", "assay": "Example B: EEG sleep-stage recording of non-anaesthetised rats over 12 hours, crossover study versus vehicle", "format": "in vivo, rat", "method": "In order to measure the brain waves, EEG electrodes are implanted into the brain of anaesthetised rats. After a recovery time of 15 days, these electrodes are connected to an amplifier via a flexible cable, and the brain waves of the non-anaesthetised animals are recorded over 12 hours. (3-Cyano-1H-indol-7-yl)-[4-(4-fluorophenethyl)piperazin-1-yl]methanone is dissolved in advance in a concentration of 0.1 ml/100 g of peanut oil. This solution (compound) or, for comparison, merely the solvent (vehicle) is administered orally to the test animals in a dose of 3 mg/kg. From the filtered and amplified brain-wave signals, the sleep stages are evaluated via Fourier spectral analysis including certain criteria. The REM and non-REM sleep stages can be identified with reference to the patterns. The experimental results are shown in Tables 1 (effect of the substance) and 2 (significances of the measurement values). It becomes clear that (3-cyano-1H-indol-7-yl)-[4-(4-fluorophenethyl)piperazin-1-yl]methanone results in a significant extension both of non-REM sleep and of REM sleep and that these extensions are significant.\nThis experiment is a crossover study. This means that one and the same animal receives either first solvent (vehicle) and then, after a waiting time of one week, the test substance (3-cyano-1H-indol-7-yl)-[4-(4-fluorophenethyl)piperazin-1-yl]methanone (compound), or the administration is carried out in the reverse sequence.\nThe measured values after vehicle or compound administration are compared with one another using the statistical method of analysis of variance (ANOVA). The p value is a statistical measure of the probability that a difference occurs by chance between the measurement values or is caused by the substance administration. According to international standards, a p value of below 0.05 is regarded as “significant”.\nIt is clear from FIG. 1 that in particular stages 3 and 4, which are regarded as slow-wave sleep, are extended in non-REM sleep. […] The term delta power or delta waves denotes the “slow” waves recorded in the EEG which are characteristic of slow-wave sleep stages. For each rat, the hour average after solvent (vehicle) treatment was firstly determined and subtracted from the value after substance treatment."}, "[4]": {"details": "3 mg/kg per os, 6 h recording during dark phase"}, "[5]": {"details": "rats, 3 mg/kg orally in peanut oil, 12 h recording, average ± standard error"}, "[6]": {"details": "rats, 3 mg/kg orally, 12 h recording, average ± standard error"}},
  "data": [
    {"smiles": "O=C1CCC(N2C(=O)c3ccccc3C2=O)C(=O)N1", "note": "(centres unmarked) [thalidomide]", "values": [
      {"measurement": "effect on both sleep phases", "setting": "[1]; known sleeping drug", "value": "extends both sleep phases"}
    ]},
    {"smiles": "CCc1nn(CCCN2CCN(c3cccc(Cl)c3)CC2)c(=O)n1CCOc1ccccc1", "note": "[nefazodone]", "values": [
      {"measurement": "effect on REM sleep", "setting": "[1]; literature report", "value": "extend REM sleep"},
      {"measurement": "effect on slow-wave phases 3 and 4 of non-REM sleep", "setting": "[1]; literature report", "value": "remain unchanged"}
    ]},
    {"smiles": "Cc1nnc2n1-c1ccc(Cl)cc1C(c1ccccc1Cl)=NC2", "note": "[triazolam, reference compound]", "values": [
      {"measurement": "what the change in REM sleep results from", "setting": "rats [2]; 6 h dark phase", "value": "reduction in the duration of the individual REM phases"},
      {"measurement": "extension of non-REM sleep", "setting": "rats [2]; dose 0.1 mg/kg, 6 h dark phase", "value": 2, "unit": "min/h"},
      {"measurement": "extension of non-REM sleep (maximum effect)", "setting": "rats [2]; dose 0.4 mg/kg, 6 h dark phase", "value": 6.5, "unit": "min/h"}
    ]},
    {"smiles": "N#Cc1c[nH]c2c(C(=O)N3CCN(CCc4ccc(F)cc4)CC3)cccc12", "note": "[(3-cyano-1H-indol-7-yl)-[4-(4-fluorophenethyl)piperazin-1-yl]methanone]", "values": [
      {"measurement": "average increase in non-REM sleep", "setting": "rats [2]; [4]", "value": "about 4 min/h"},
      {"measurement": "maximum increase in non-REM sleep", "setting": "rats [2]; [4]", "value": "about 5 minutes per hour"},
      {"measurement": "extension of REM sleep, average", "setting": "rats [2]; 6 h dark phase", "value": 0.8, "unit": "min/h"},
      {"measurement": "extension of REM sleep, maximum", "setting": "rats [2]; 6 h dark phase", "value": 2, "unit": "min/h"},
      {"measurement": "what the change in REM sleep results from", "setting": "rats [2]; 6 h dark phase", "value": "increase in the number of REM episodes"},
      {"measurement": "relative delta power in the rat EEG, difference from the control level", "setting": "rats [3]; FIG. 1, as a function of the time of day", "value": "significantly increased overall"},
      {"measurement": "NREM sleep Total Time", "setting": "rats [3]; [5]", "value": "232.8 ± 13.1", "unit": "min"},
      {"measurement": "REM sleep Total Time", "setting": "rats [3]; [5]", "value": "45.3 ± 3.8", "unit": "min"},
      {"measurement": "Wakefulness Total Time", "setting": "rats [3]; [5]", "value": "440.6 ± 15.1", "unit": "min"},
      {"measurement": "Inter-REM interval", "setting": "rats [3]; [6]", "value": "28.8 ± 3.0", "unit": "min"},
      {"measurement": "NREM sleep Episode Duration", "setting": "rats [3]; [6]", "value": "184.8 ± 9.5", "unit": "s"},
      {"measurement": "REM Latency", "setting": "rats [3]; [6]", "value": "5.2 ± 0.3", "unit": "min"},
      {"measurement": "REM sleep Episode Duration", "setting": "rats [3]; [6]", "value": "93.1 ± 6.6", "unit": "s"},
      {"measurement": "Wakefulness Episode Duration", "setting": "rats [3]; [6]", "value": "422.5 ± 29.3", "unit": "s"}
    ]}
  ]
}
